Test results as given in PMC10002984, “Dual PTP1B/TC-PTP Inhibitors: Biological Evaluation of 3-(Hydroxymethyl)cinnoline-4(1H)-Ones” (International Journal of Molecular Sciences, 2023).

Experiments:
[1] = test system: male rats with HFD-induced obesity; assay: Body weight and food intake in obese rats, five-day treatment; assay type: in vivo, male Wistar rats; conditions: five-day treatment i.p., 3 8 mg/kg/day, 4 10 mg/kg/day; for reduction of body weight in obese rats: p < 0.05 vs untreated obese animals; for reduction of the consumption of dry standard food: obese rats
Description: The male Wistar rats (at the start of the experiment the age of the animals was 2-months, and at the end of the experiment their age was 6-months) were obtained from the Rappolovo animal facility (Russia). The animals were housed in plastic cages, five animals in each, with a normal light–dark cycle (12 h/12 h), a temperature of 22 ± 3 °C, and free access to food and water. All experiments were approved by the Institutional Animal Care and Use Committee at the Sechenov Institute of Evolutionary Physiology and Biochemistry (St. Petersburg, Russia) (protocol No 02/02-2020, 19 February 2020) and according to The Guide for the Care and Use of Laboratory Animals and the European Communities Council Directive of 1986 (86/609/EEC). All efforts were made to minimize animal suffering and reduce the number of experimental animals.
(§1) The obesity model was induced at 16-weeks (starting at two months of age) using a high-fat diet. Control animals received standard laboratory chow pellets. The high-fat diet included supplements of 5–7 g of a fat mixture containing 52.4% pork lard, 41.7% curd, 5% liver, 0.5% L-methionine, 0.2% baker’s yeast, and 0.2% sodium chloride. After 16-weeks on a high-fat diet, the animals with increased body weight, glucose intolerance, and hyperinsulinemia, and hyperleptinemia were selected for further experiments. The glucose intolerance was estimated according to the results of the glucose tolerance test (GTT). In the GTT, 120 min after glucose loading, the blood glucose levels in obese rats were above 7 mM, and the AUC0-120 values for the curve “glucose concentration (mM)–time (minutes)” were above 30%, as compared to the average AUC0-120 values in the control group.
Further, six groups were formed: control (Con, n = 10), obesity (Ob, n = 10), obese rats with five-day treatment with compounds 1 (Ob + 1, n = 5), 2 (Ob + 2, n = 5), 3 (Ob + 3, n = 10), and 4 (Ob + 4, n = 10). All compounds were administered in DMSO (300 µL) at a daily dose of 7 mg/kg (1 and 2), 8 mg/kg (3), and 10 mg/kg (4) (i.p.), based on the results of the preliminary experiments. The used doses of compounds 1–4, in terms of the number of moles of each compound per kg of animal body weight, were equivalent. Control and obese rats received DMSO in the same volumes (300 µL), instead of the tested compounds. During the five days of the experiment, all animals were transferred to standard food and had free access to food and drinking water. […] The test was carried out on the morning of the next day after the last (fifth) injection of the compounds or DMSO, after a 10 h fast. The rest of the animals (n = 5 in each group) were anesthetized and decapitated on the last day of the experiment. […]

[2] = test system: male rats with HFD-induced obesity; assay: Glucose tolerance test in obese rats after five-day treatment; assay type: in vivo, male Wistar rats; conditions: 4 10 mg/kg/day; for reduction of AUC0-120 of the glucose concentration curve vs untreated animals: GTT after five-day treatment, p < 0.05 vs Ob group; for reduction of AUC0-120 of the glucose concentration curve vs untreated animals / reduction of glucose level 120 min after glucose load vs untreated obese animals: 3 8 mg/kg/day; for reduction of glucose level 120 min after glucose load vs untreated obese animals: GTT glucose 2 g/kg i.p. after five-day treatment
Description: as §1
Further, six groups were formed: control (Con, n = 10), obesity (Ob, n = 10), obese rats with five-day treatment with compounds 1 (Ob + 1, n = 5), 2 (Ob + 2, n = 5), 3 (Ob + 3, n = 10), and 4 (Ob + 4, n = 10). All compounds were administered in DMSO (300 µL) at a daily dose of 7 mg/kg (1 and 2), 8 mg/kg (3), and 10 mg/kg (4) (i.p.), based on the results of the preliminary experiments. The used doses of compounds 1–4, in terms of the number of moles of each compound per kg of animal body weight, were equivalent. Control and obese rats received DMSO in the same volumes (300 µL), instead of the tested compounds. During the five days of the experiment, all animals were transferred to standard food and had free access to food and drinking water. […] The test was carried out on the morning of the next day after the last (fifth) injection of the compounds or DMSO, after a 10 h fast. The rest of the animals (n = 5 in each group) were anesthetized and decapitated on the last day of the experiment. The blood and liver samples were taken to measure blood glucose and hormone levels and gene expression in the liver.
The glucose levels in the blood obtained from the tail vein were measured using a glucometer (Life Scan Johnson & Johnson, Denmark) and the test strips “One Touch Ultra” (USA). The levels of insulin and leptin in rat serum were estimated with the “Rat Insulin ELISA” (Mercodia AB, Uppsala, Sweden) and “ELISA for Leptin, Rat” (Cloud-Clone Corporation, Houston, TX, USA) kits. The GTT was carried out using a single injection of glucose (2 g/kg, i.p.) after 10 h of fasting, as described earlier. The blood glucose levels were measured before (0 min) and 15, 30, 60, and 120 min after the glucose load.

PTP1B gene = assay: Gene expression in the liver of obese rats (qPCR), PTP1B gene; assay type: in vivo, rat; conditions: five-day treatment, vs Ob group
Description: (§2) Further, six groups were formed: control (Con, n = 10), obesity (Ob, n = 10), obese rats with five-day treatment with compounds 1 (Ob + 1, n = 5), 2 (Ob + 2, n = 5), 3 (Ob + 3, n = 10), and 4 (Ob + 4, n = 10). All compounds were administered in DMSO (300 µL) at a daily dose of 7 mg/kg (1 and 2), 8 mg/kg (3), and 10 mg/kg (4) (i.p.), based on the results of the preliminary experiments. The used doses of compounds 1–4, in terms of the number of moles of each compound per kg of animal body weight, were equivalent. Control and obese rats received DMSO in the same volumes (300 µL), instead of the tested compounds. During the five days of the experiment, all animals were transferred to standard food and had free access to food and drinking water. […]
(§3) The total RNA was isolated from the liver samples of rats using the “ExtractRNA Reagent” (Evrogen, Moscow, Russia), and the samples containing 1 μg of RNA were transcribed to cDNA using the random oligodeoxynucleotide primers and the “MMLV RT kit” (Evrogen, Russia). […] The amplified signals were detected using the “Applied Biosystems® 7500 Real-Time PCR System” (Life Technologies, Carlsbad, CA, USA, Thermo Fisher Scientific Inc., USA). […] The obtained data were calculated with the delta–delta Ct method and expressed as a fold expression, relative to the corresponding control. […]

[3] = test system: insulin receptor gene (InsR); assay: Gene expression in the liver of obese rats (qPCR), insulin receptor gene; assay type: in vivo, rat; conditions: five-day treatment, difference with Ob group not significant
Description: as §2, §3

Compound	reduction of body weight in obese rats [1] [g]	reduction of the consumption of dry standard food [1] [%]	reduction of AUC0-120 of the glucose concentration curve vs untreated animals [2] [%]	reduction of glucose level 120 min after glucose load vs untreated obese animals [2] [%]	expression of the PTP1B gene in the liver (PTP1B gene)	expression of the gene encoding the insulin receptor in the liver [3]	glucose sensitivity in the glucose tolerance test ([2]; obese rats, five-day treatment)
O=c1c(CO)n[nH]c2ccc(Cl)cc12 [Compound 3, 6-Chloro-3-(hydroxymethyl)cinnolin-4(1H)-one]	22.2 ± 4.5	46	24	20	significant difference to the Ob group	slight decrease	
O=c1c(CO)n[nH]c2ccc(Br)cc12 [Compound 4, 6-Bromo-3-(hydroxymethyl)cinnolin-4(1H)-one]	22.6 ± 4.0	39	20	17	significant difference to the Ob group	slight decrease	improved
